Measurements as given in article PMC9358002, “Synthesis and Discovery of Ligustrazine–Heterocycle Derivatives as Antitumor Agents” (Frontiers in Chemistry, 2022).

What was measured:
[1] = tested on: human breast cancer MCF-7; assay: MTT antiproliferative assay, MCF-7; type: cell-based; settings: Homo sapiens, MCF7, 48 h, 0–50 μM, read-out: Antiproliferative activity IC50 ± SEM, MCF-7
Procedure: (§1) The in vitro antiproliferative activity of 33 TMPH compounds was evaluated by MTT assay ([Medica et al., 2022]). Five types of TNBC-related cell lines (human breast cancer MCF-7 and MDA-MB-231, mouse breast cancer 4T1, mouse fibroblast L929, and human umbilical vein endothelial HUVEC cell lines) were used. The cell lines were obtained from the Shanghai Institute of Biochemistry and Cell Biology of the Chinese Academy of Sciences (Shanghai, China). The cell lines were cultured in DMEM supplemented with 1% penicillin–streptomycin solution (100×) and 10% FBS at 37°C under a humid atmosphere containing 5% CO2. After cell passage, cryopreservation, and resuscitation, the growth-inhibitory effects against the five cell lines were determined by MTT assay. The 33 TMPH compounds and the reference control drug cisplatin were dissolved in 0.1% DMSO solution. The cell lines were maintained in 96-well plates and subjected to each test compound (0–50 μM) at 37°C for 48 h. After treatment with 1 mg/ml MTT solution for 4 h, the formazan crystals were dissolved in each well. A microplate reader (Varioskan Flash 3001, Thermo Scientific) was used to determine the cell viability at 490 nm, and each experiment was repeated four times. The collected data were expressed as the mean ± SEM. The inhibitory concentration of the 34 compounds at 50% (IC50) was calculated via concentration–inhibition relationship regression by SPSS software.

[2] = tested on: human breast cancer MDA-MB-231; assay: MTT antiproliferative assay, MDA-MB-231; type: cell-based; settings: for IC50: Homo sapiens, MDA-MB-231, MTT, 48 h, 0–50 μM, read-out: Antiproliferative activity IC50 ± SEM, MDA-MB-231; for SI, selectivity index: SI = IC50 (L929)/IC50 (MDA-MB-231)
Procedure: as §1

mouse breast cancer 4T1 = assay: MTT antiproliferative assay, 4T1; type: cell-based; settings: Mus musculus, 48 h, 0–50 μM, read-out: Antiproliferative activity IC50 ± SEM, 4T1
Procedure: as §1

mouse fibroblast L929 = assay: MTT antiproliferative assay, L929; type: cell-based; settings: Mus musculus, L929, 48 h, 0–50 μM, read-out: Antiproliferative activity IC50 ± SEM, L929
Procedure: as §1

[3] = tested on: human umbilical vein endothelial HUVEC; assay: MTT antiproliferative assay, HUVEC; type: cell-based; settings: Homo sapiens, HUVEC, 48 h, 0–50 μM, read-out: Antiproliferative activity IC50 ± SEM, HUVEC
Procedure: as §1

[4] = tested on: MCF-7, MDA-MB-231, 4T1, L929 and HUVEC cell lines; assay: MTT antiproliferative assay, statements over all five tested cell lines; type: cell-based; settings: range over all five tested cell lines, read-out: IC50 values ranging over the tested cell lines
Procedure: as §1

MDA-MB-231 cells [5] = assay: Clonal formation assay of MDA-MB-231 cells; type: cell-based, human; settings: 0.5, 1.0 and 2.0 μM for 10 days
Procedure: Human breast cancer MDA-MB-231 cells were cultured in a six-well plate with 1,500 cells per well and incubated for 24 h at 37°C under a humid atmosphere containing 5% CO2. Then, the MDA-MB-231 cells were incubated with compound 12–9 at final concentrations of 0, 0.5, 1.0, and 2.0 μM for 10 days. The treated cells were washed with PBS and fixed with 4% paraformaldehyde for 15 min at room temperature. Then, the end product of the cell colonies was visualized by staining with 0.1% crystal violet for 10 min. The images were photographed using a handy camera, and the number of cell colonies was assessed using open Image J software (National Institutes of Health). Each experiment was repeated three times. A group of >50 cells was defined as one colony formation.

MDA-MB-231 cells [6] = assay: Hoechst 33 342 staining of MDA-MB-231 cells; type: cell-based, human; settings: 1.0 μM, 48 h
Procedure: The induction of apoptosis by compound 12–9 was visually evaluated in MDA-MB-231 cells by Hoechst 33 342 staining. The test cells were transferred to six-well plates at a density of 1 × 10^5 cells. […] Then, the MDA-MB-231 cells were stained with Hoechst 33 342 solution (10 μg/ml in the culture medium, Beyotime Institute of Biotechnology, Shanghai, China) at 37°C in a dark room for 20 min after incubation with the test compound 12–9. The cells were then washed twice with a serum-free medium to remove the leftover dye. The apoptotic cells stained by Hoechst 33 342 were imaged using CLSM (Carl-Zeiss LSM 710).

MDA-MB-231 cells [7] = assay: Apoptosis analysis by annexin V-FITC/PI staining (flow cytometry); type: cell-based, human; settings: 48 h; for apoptotic ratio: control 13.7%
Procedure: Apoptosis induced by TMPH compound 12–9 was evaluated by annexin V-FITC/PI staining. Briefly, MDA-MB-231 cells in the logarithmic growth phase were cultured in a six-well plate and incubated for 24 h at 37°C under a humid atmosphere containing 5% CO2. […] The incubated cells were washed twice with PBS, digested by trypsin, and centrifuged at 1,000 rpm for 5 min. The collected MDA-MB-231 cells were transferred to a 1.5-ml tube and resuspended in a solution of 200 μl of annexin V-FITC and 5 μl of PI. After incubation in a dark environment (covered with aluminum foil) for 15 min at room temperature, the collected cells were evaluated by flow cytometry (CyFlow®Cube 6, Sysmex). The apoptosis analysis data were shown as a pseudo color map and analyzed by FlowJo software.

| IC50 [1] | IC50 [2] | IC50 (mouse breast cancer 4T1) | SMILES | SI, selectivity index [2] | IC50 (mouse fibroblast L929) | IC50 [3] | IC50 [4] | further results |
| --- | --- | --- | --- | --- | --- | --- | --- | --- |
| 1.11 ± 0.15 µM | 0.84 ± 0.02 µM | 1.16 ± 0.18 µM | Cc1nc(C)c(C(=O)NCCCCCCCCCCCCNC(=O)c2ccc3cc[nH]c3c2)nc1C [12–9] | 3.76 | 3.16 ± 0.13 µM | 3.82 ± 0.24 µM | 1.61 to 19.5 µM | colony formation versus untreated control (MDA-MB-231 cells [5]): significantly fewer and smaller; apoptotic morphology, Hoechst 33 342 staining (MDA-MB-231 cells [6]): appeared shrunken and showed strong blue fluorescence; Q1, necrotic cells (annexin V−/PI+) (MDA-MB-231 cells [7]; 0.5 μM): 0.20; Q2, late apoptotic or necrotic cells (annexin V+/PI+) (MDA-MB-231 cells [7]; 0.5 μM): 15.2; Q3, early apoptotic cells (annexin V+/PI−) (MDA-MB-231 cells [7]; 0.5 μM): 8.76; Q4, living cells (annexin V−/PI−) (MDA-MB-231 cells [7]; 0.5 μM): 75.9; apoptotic ratio (MDA-MB-231 cells [7]; 0.5 μM): 23.96%; Q1, necrotic cells (annexin V−/PI+) (MDA-MB-231 cells [7]; 1.0 μM): 0.37; Q2, late apoptotic or necrotic cells (annexin V+/PI+) (MDA-MB-231 cells [7]; 1.0 μM): 24.8; Q3, early apoptotic cells (annexin V+/PI−) (MDA-MB-231 cells [7]; 1.0 μM): 7.84; Q4, living cells (annexin V−/PI−) (MDA-MB-231 cells [7]; 1.0 μM): 67.0; apoptotic ratio (MDA-MB-231 cells [7]; 1.0 μM): 32.64%; Q1, necrotic cells (annexin V−/PI+) (MDA-MB-231 cells [7]; 2.0 μM): 1.03; Q2, late apoptotic or necrotic cells (annexin V+/PI+) (MDA-MB-231 cells [7]; 2.0 μM): 35.3; Q3, early apoptotic cells (annexin V+/PI−) (MDA-MB-231 cells [7]; 2.0 μM): 11.6; Q4, living cells (annexin V−/PI−) (MDA-MB-231 cells [7]; 2.0 μM): 52.1; apoptotic ratio (MDA-MB-231 cells [7]; 2.0 μM): 46.9% |
| 2.21 ± 0.15 µM | 1.64 ± 0.12 µM | 2.69 ± 0.04 µM | COc1cc(C=CC(=O)NCCCCCCCCCCCCNC(=O)c2nc(C)c(C)nc2C)cc(OC)c1OC [12–12] | 11.50 | 18.9 ± 0.44 µM | 12.2 ± 0.2 µM | 1.61 to 19.5 µM |  |
| 1.61 ± 0.08 µM | 5.01 ± 0.16 µM | 4.76 ± 0.45 µM | Cc1nc(C)c(C(=O)NCCCCCCCCCCCCNC(=O)c2ccc3ccccc3c2)nc1C [12–13] | 1.77 | 8.89 ± 0.12 µM | 10.7 ± 1.06 µM | 1.61 to 19.5 µM |  |
